In BindingDB's records for doi:10.1021/cb400371r (University of Konstanz, 2013):

These molecules were tested against T1, Fucose-binding lectin PA-IIL (Pseudomonas aeruginosa (strain ATCC 15692 / DSM 22644 / CIP 104116 / JCM 14847 / LMG 12228 / 1C / PRS 101 / PAO1), UniProt Q9HYN5).
T1 sequence (Q9HYN5 whole entry): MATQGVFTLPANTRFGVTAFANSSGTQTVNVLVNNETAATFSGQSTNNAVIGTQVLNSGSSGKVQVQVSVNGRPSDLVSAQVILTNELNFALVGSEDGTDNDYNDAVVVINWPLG

SMILES	EC50
CC1O[C@@H](OCCNC(=S)Nc2ccc(-c3c4ccc(=O)cc-4oc4cc(O)ccc34)c(C(=O)O)c2)[C@@H](O)C(O)[C@@H]1O (some centres not stated) [LecB Inhibitor Ligand 6]	0.697 µM

Target: T1, Fucose-binding lectin PA-IIL
Remark: another data set of the same source

SMILES	IC50
COC1O[C@H](CNC(C)=O)[C@@H](O)C(O)[C@@H]1O (some centres not stated) [LecB Inhibitor Amides 4a]	281 µM
COC1O[C@H](CNC(=O)c2ccc([N+](=O)O)cc2)[C@@H](O)C(O)[C@@H]1O (some centres not stated) [LecB Inhibitor Amides 4c]	75.8 µM
COC1O[C@H](CNC(=O)c2cc([N+](=O)O)cc([N+](=O)O)c2)[C@@H](O)C(O)[C@@H]1O (some centres not stated) [LecB Inhibitor Amides 4d]	121 µM
COC1O[C@H](CNC(=O)Cc2ccccc2)[C@@H](O)C(O)[C@@H]1O (some centres not stated) [LecB Inhibitor Amides 4e]	73.8 µM
COC1O[C@H](CNC(=O)C(c2ccccc2)c2ccccc2)[C@@H](O)C(O)[C@@H]1O (some centres not stated) [LecB Inhibitor Amides 4f]	161 µM
COC1O[C@H](CNCc2ccccc2)[C@@H](O)C(O)[C@@H]1O (some centres not stated) [LecB Inhibitor Amines 3a]	227 µM
COC1O[C@H](CNCc2ccc([N+](=O)O)cc2)[C@@H](O)C(O)[C@@H]1O (some centres not stated) [LecB Inhibitor Amines 3b]	117 µM
COC1O[C@H](CNCc2ccc(C#N)cc2)[C@@H](O)C(O)[C@@H]1O (some centres not stated) [LecB Inhibitor Amines 3c]	115 µM
COC1O[C@H](CNCc2ccc(Cl)cc2)[C@@H](O)C(O)[C@@H]1O (some centres not stated) [LecB Inhibitor Amines 3d]	212 µM
COC1O[C@H](CN)[C@@H](O)C(O)[C@@H]1O (some centres not stated) [LecB Inhibitor Amines 3e]	353 µM
CC1O[C@@H](OCCNC(=S)Nc2ccc(-c3c4ccc(=O)cc-4oc4cc(O)ccc34)c(C(=O)O)c2)[C@@H](O)C(O)[C@@H]1O (some centres not stated) [LecB Inhibitor Ligand 6]	2.74 µM
COC1O[C@H](CNS(=O)(=O)c2ccc(C)cc2)[C@@H](O)C(O)[C@@H]1O (some centres not stated) [LecB Inhibitor Sulfonamides 5b]	49.7 µM
COC1O[C@H](CNS(=O)(=O)c2ccc(Br)cc2)[C@@H](O)C(O)[C@@H]1O (some centres not stated) [LecB Inhibitor Sulfonamides 5c]	20.9 µM
COC1O[C@H](CNS(=O)(=O)c2ccc([N+](=O)O)cc2)[C@@H](O)C(O)[C@@H]1O (some centres not stated) [LecB Inhibitor Sulfonamides 5d]	36.1 µM
COC1O[C@H](CNS(=O)(=O)/C=C/c2ccccc2)[C@@H](O)C(O)[C@@H]1O (some centres not stated) [LecB Inhibitor Sulfonamides 5g]	86.9 µM
COC1O[C@H](Cn2cc(CO)nn2)[C@@H](O)C(O)[C@@H]1O (some centres not stated) [LecB Inhibitor Triazoles 2a]	578 µM
COC1O[C@H](Cn2cc(CCc3ccccc3)nn2)[C@@H](O)C(O)[C@@H]1O (some centres not stated) [LecB Inhibitor Triazoles 2b]	264 µM
COC1O[C@H](Cn2cc(-c3ccccc3)nn2)[C@@H](O)C(O)[C@@H]1O (some centres not stated) [LecB Inhibitor Triazoles 2c]	373 µM
COC1O[C@H](Cn2cc(-c3cccc(C)c3)nn2)[C@@H](O)C(O)[C@@H]1O (some centres not stated) [LecB Inhibitor Triazoles 2d]	279 µM
COC1O[C@H](Cn2cc(-c3ccc(C)cc3)nn2)[C@@H](O)C(O)[C@@H]1O (some centres not stated) [LecB Inhibitor Triazoles 2e]	294 µM
COC1O[C@H](Cn2cc(-c3ccc(F)cc3)nn2)[C@@H](O)C(O)[C@@H]1O (some centres not stated) [LecB Inhibitor Triazoles 2g]	240 µM
